Here are results for 28 compounds from patent US20240279214A1, “ALPHA4 BETA7 INEGRIN ANTAGONISTS AND USES THEREOF” (XinThera, Inc., priority 2022, published 2024).

Broadly, the EC50 is the midpoint of the concentration-response curve.

The target of the assay is T1, a4b7 integrin interaction with MadCAM-1 (Homo sapiens, UniProt P13612+P26010).
T1 construct: capture of a4b7 integrin expressing cells, RPMI8866; endogenous in cells; host or cells: RPMI8866
T1 sequence (P13612 34-1032): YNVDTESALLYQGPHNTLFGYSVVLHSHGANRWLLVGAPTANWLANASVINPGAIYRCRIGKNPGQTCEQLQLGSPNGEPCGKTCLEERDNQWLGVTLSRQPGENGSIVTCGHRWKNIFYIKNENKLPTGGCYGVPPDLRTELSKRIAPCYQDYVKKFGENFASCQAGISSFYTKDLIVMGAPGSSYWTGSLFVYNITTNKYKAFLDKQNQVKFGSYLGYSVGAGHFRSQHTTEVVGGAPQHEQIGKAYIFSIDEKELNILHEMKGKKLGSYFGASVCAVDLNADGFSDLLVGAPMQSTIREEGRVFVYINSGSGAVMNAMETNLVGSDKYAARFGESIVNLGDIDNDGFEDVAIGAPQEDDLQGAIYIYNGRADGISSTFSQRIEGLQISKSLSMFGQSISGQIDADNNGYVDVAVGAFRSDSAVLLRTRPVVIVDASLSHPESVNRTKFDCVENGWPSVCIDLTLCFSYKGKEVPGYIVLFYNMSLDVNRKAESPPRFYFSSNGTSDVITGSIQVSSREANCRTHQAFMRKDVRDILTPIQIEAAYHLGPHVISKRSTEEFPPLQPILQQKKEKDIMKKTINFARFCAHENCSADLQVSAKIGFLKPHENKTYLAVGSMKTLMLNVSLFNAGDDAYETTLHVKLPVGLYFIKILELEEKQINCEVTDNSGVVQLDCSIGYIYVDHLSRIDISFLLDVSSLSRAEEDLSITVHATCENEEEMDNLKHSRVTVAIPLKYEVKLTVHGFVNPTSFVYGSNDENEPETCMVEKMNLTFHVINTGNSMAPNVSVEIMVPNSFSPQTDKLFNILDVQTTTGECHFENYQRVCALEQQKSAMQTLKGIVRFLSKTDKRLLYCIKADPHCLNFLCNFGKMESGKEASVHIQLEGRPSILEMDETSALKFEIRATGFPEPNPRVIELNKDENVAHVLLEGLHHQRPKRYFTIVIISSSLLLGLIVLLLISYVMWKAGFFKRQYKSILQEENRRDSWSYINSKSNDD
T1 sequence (P26010 20-798): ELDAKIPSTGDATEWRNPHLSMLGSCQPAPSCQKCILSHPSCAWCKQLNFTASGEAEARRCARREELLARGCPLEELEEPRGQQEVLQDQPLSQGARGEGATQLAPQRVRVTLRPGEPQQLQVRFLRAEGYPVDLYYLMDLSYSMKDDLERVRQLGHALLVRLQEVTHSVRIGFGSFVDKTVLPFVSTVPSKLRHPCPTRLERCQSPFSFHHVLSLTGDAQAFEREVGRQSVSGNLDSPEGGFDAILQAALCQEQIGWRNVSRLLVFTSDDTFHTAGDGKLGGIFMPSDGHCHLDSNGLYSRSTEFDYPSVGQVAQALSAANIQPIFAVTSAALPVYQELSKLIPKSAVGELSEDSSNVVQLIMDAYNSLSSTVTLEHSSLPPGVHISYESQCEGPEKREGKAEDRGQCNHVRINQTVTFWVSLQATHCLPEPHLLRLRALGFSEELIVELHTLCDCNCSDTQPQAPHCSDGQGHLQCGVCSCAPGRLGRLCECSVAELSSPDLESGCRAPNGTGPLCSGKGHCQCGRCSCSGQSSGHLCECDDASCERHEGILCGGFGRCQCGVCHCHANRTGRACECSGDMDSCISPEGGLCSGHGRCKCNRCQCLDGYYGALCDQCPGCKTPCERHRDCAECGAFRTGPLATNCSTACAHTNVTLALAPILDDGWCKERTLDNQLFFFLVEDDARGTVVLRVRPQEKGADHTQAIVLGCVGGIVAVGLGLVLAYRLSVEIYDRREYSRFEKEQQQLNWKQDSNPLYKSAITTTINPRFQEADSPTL
The assay is described as follows: a4b7 Cell Capture Assay (RPMI8866 cells on MAdCAM-1 Fc coated plates). The assay is classed as cell-based. As to conditions: 50% human serum, 1 mM MgCl2, 1 hour incubation, CellTiter-Glo luminescence, read-out: a4B7 cell capture assay RMPI8866-MadCAM EC50. In short, it runs like this:
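RPMI8866 cells (1.0×10^6 cells/mL) in 1 mM MgCl2, 25 mM HEPES, 50% human serum were added to plates coated with human MAdCAM-1–IgG1 Fc (1.0 μg/mL) and exposed to compound (9-point, 0.08–1000 nM, 0.1% DMSO) for 1 h at 37 °C. Bound cells were read by CellTiter-Glo luminescence. IC50 came from 4-parameter fit of normalized % inhibition.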
(In general: Cellular ATP, detected with luciferase, serves as a proxy for viable cell number.)
In the case of `Cc1cc2cc(c1F)[C@H](CC(=O)O)NC(=O)[C@@H](n1cc(CCN3CC(F)C3)c(C(F)(F)F)cc1=O)c1cc(ccc1F)Oc1nn(C)cc1-2` (single isomer, unassigned) [Example 43], the 50% effective concentration (EC50) is 480 nM. With `Cc1cc2cc(c1F)[C@H](CC(=O)O)NC(=O)[C@@H](n1ccc(C(F)(F)F)cc1=O)c1cc(ccc1F)COc1cccc(C)c1-2` (single isomer, unassigned) [Example 44] the figure was 160 nM; with `Cc1cc2cc(c1F)[C@H](CC(=O)O)NC(=O)[C@@H](n1cc(CCN3CC(F)(F)C3)c(C(F)(F)F)cc1=O)c1cc(ccc1F)Oc1cccc(C)c1-2` (single isomer, unassigned) [Example 45], 1.8 nM. With `Cc1cc2cc(c1F)[C@H](CC(=O)O)NC(=O)[C@@H](n1cc(CCN3CC(F)C3)c(C(F)(F)F)cc1=O)c1cc(ccc1F)Oc1cc(C#N)cc(C)c1-2` (single isomer, unassigned) [Example 46], the EC50 was 1.6 nM. Consider `Cc1cc2cc(c1F)[C@H](CC(=O)O)NC(=O)[C@@H](n1cc(CCN3CC(F)C3)c(C(F)(F)F)cc1=O)c1cc(ccc1F)COc1cc(Cl)cc(C)c1-2` (single isomer, unassigned) [Example 47], for which the 50% effective concentration (EC50) amounted to 42 nM.

In the case of `Cc1cc2cc(c1F)[C@H](CC(=O)O)NC(=O)[C@@H](n1cc(CCN3CC(F)C3)c(C(F)(F)F)cc1=O)c1cc(ccc1F)Oc1cc(C(C)(C)O)cc(C)c1-2` (single isomer, unassigned) [Example 48], the EC50 turned out to be 0.5 nM. On to `Cc1cc2cc(c1F)[C@H](CC(=O)O)NC(=O)[C@@H](n1cc(CCN3CC(F)C3)c(C(F)(F)F)cc1=O)c1cc(cc(Cl)c1F)COc1cccc(C)c1-2` (single isomer, unassigned) [Example 49], for which the concentration giving a half-maximal response (EC50) is 4.9 nM.

Turning to `Cc1cc2cc(c1F)[C@H](CC(=O)O)NC(=O)[C@@H](n1cc(CCN3CC(F)C3)c(C(F)(F)F)cc1=O)c1cc(ccc1F)COc1ccc(F)cc1-2` (single isomer, unassigned) [Example 50], the EC50 is more than 100 nM. `Cc1cc2cc(c1F)[C@H](CC(=O)O)NC(=O)[C@@H](n1cc(CCN3CC(F)C3)c(C(F)(F)F)cc1=O)c1cc(ccc1F)Oc1ccc(F)cc1-2` (single isomer, unassigned) [Example 52]: the EC50 was found to be 180 nM. With `Cc1cc2cc(c1F)[C@H](CC(=O)O)NC(=O)[C@@H](n1cc(CCN3CC(F)(F)C3)c(C(F)(F)F)cc1=O)c1cc(ccc1F)COc1cccc(C)c1-2` (single isomer, unassigned) [Example 53], the EC50 was 11 nM. Consider `Cc1cc2cc(c1F)[C@H](CC(=O)O)NC(=O)[C@@H](n1cc(CCN3CC(F)C3)c(C(F)(F)F)cc1=O)c1cc(ccc1F)COc1cc(C#N)cc(C)c1-2` (single isomer, unassigned) [Example 54], for which the half-maximal effective concentration (EC50) came out at 27 nM. The figure for `Cc1cc2cc(c1F)[C@H](CC(=O)O)NC(=O)[C@@H](n1cc(CCN3CC(F)C3)c(C(F)(F)F)cc1=O)c1cc(ccc1F)Oc1cc(C3COC3)cc(C)c1-2` (single isomer, unassigned) [Example 57] is 2.6 nM; for `Cc1cc2cc(c1F)[C@H](CC(=O)O)NC(=O)[C@@H](n1cc(CCN3CC(F)C3)c(C(F)(F)F)cc1=O)c1cc(ccc1Cl)COc1cccc(C)c1-2` (single isomer, unassigned) [Example 58] it is 7 nM. With `Cc1cc2cc(c1F)[C@H](CC(=O)O)NC(=O)[C@@H](n1cc(CCN3CC(F)C3)c(C(F)(F)F)cc1=O)c1cc(ccc1F)Oc1nn(CC3CC3)cc1-2` (single isomer, unassigned) [Example 60], the EC50 amounted to 380 nM. As for `Cc1cc2cc(c1F)[C@H](CC(=O)O)NC(=O)[C@@H](n1cc(CCN3CC(F)C3)c(C(F)(F)F)cc1=O)c1cc(ccc1F)COc1ccc(F)c(C)c1-2` (single isomer, unassigned) [Example 61], the EC50 is 42 nM. For `Cc1cc2cc(c1F)[C@H](CC(=O)O)NC(=O)[C@@H](n1cc(CCN3CCC(F)(F)CC3)c(C(F)(F)F)cc1=O)c1cc(ccc1F)COc1cccc(C)c1-2` (single isomer, unassigned) [Example 62], the EC50 turned out to be 33 nM. As to `Cc1cc2cc(c1F)[C@H](CC(=O)O)NC(=O)[C@@H](n1cc(CCN3CCC(F)(F)CC3)c(C(F)(F)F)cc1=O)c1cc(ccc1F)Oc1cccc(C)c1-2` (single isomer, unassigned) [Example 63], the EC50 was found to be 10 nM.

As for `Cc1cc2cc(c1F)[C@H](CC(=O)O)NC(=O)[C@@H](n1cc(CCN3CC(F)C3)c(C(F)(F)F)cc1=O)c1cc(ccc1F)Oc1cc(C(F)(F)F)cc(C)c1-2` (single isomer, unassigned) [Example 64], the EC50 was determined as 6.4 nM. Turning to `Cc1cc2cc(c1F)[C@H](CC(=O)O)NC(=O)[C@@H](n1cc(CCN3CC(F)C3)cc(C)c1=O)c1cc(ccc1F)Oc1cccc(C)c1-2` (single isomer, unassigned) [Example 66], the concentration for a half-maximal effect (EC50) was 0.4 nM. As to `Cc1cccc2c1-c1cc(c(F)c(C(F)(F)F)c1)[C@H](CC(=O)O)NC(=O)[C@@H](n1c(=O)c3ccncc3n(C)c1=O)c1cc(ccc1F)CO2` (single isomer, unassigned) [Example 67], the EC50 turned out to be 190 nM. Turning to `Cc1cc2cc(c1F)[C@H](CC(=O)O)NC(=O)[C@@H](n1c(=O)c3ccncc3n(C)c1=O)c1cc(ccc1F)Oc1cccc(C)c1-2` (single isomer, unassigned) [Example 69], the EC50 was found to be 0.38 nM. As to `Cc1cc2cc(c1F)[C@H](CC(=O)O)NC(=O)[C@@H](n1cc(CCN3CC(F)C3)c(C(F)(F)F)cc1=O)c1cc(ccc1F)COc1nn(CC3CC3)cc1-2` (single isomer, unassigned) [Example 70], the EC50 is more than 100 nM. On to `Cc1ccc2cc1[C@H](n1cc(CCN3CC(F)C3)c(C(F)(F)F)cc1=O)C(=O)N[C@@H](CC(=O)O)c1cc(cc(C)c1F)-c1c(C)cccc1O2` (single isomer, unassigned) [Example 71], for which the EC50 worked out at 3.5 nM. `Cc1cccc2c1-c1cc(c(C)s1)[C@H](CC(=O)O)NC(=O)[C@@H](n1cc(CCN3CC(F)C3)c(C(F)(F)F)cc1=O)c1cc(ccc1F)O2` (single isomer, unassigned) [Example 72]: the EC50 came to 16 nM. For `Cc1cccc2c1-c1cc(C3CC3)c(F)c(c1)[C@H](CC(=O)O)NC(=O)[C@@H](n1ccc(C(F)(F)F)cc1=O)c1cc(ccc1F)O2` (single isomer, unassigned) [Example 73], the EC50 was determined as 27 nM. Take `Cc1ccc2cc1[C@H](n1cc(CCN3CC(F)C3)c(C(F)(F)F)cc1=O)C(=O)N[C@@H](CC(=O)O)c1cc(cc(C)c1F)-c1c(C)cccc1OC2` (single isomer, unassigned) [Example 74]: the EC50 is 20 nM.

Regarding `Cc1cccc2c1-c1cc(c(C)s1)[C@H](CC(=O)O)NC(=O)[C@@H](n1cc(CCN3CC(F)C3)c(C(F)(F)F)cc1=O)c1cc(ccc1F)CO2` (single isomer, unassigned) [Example 75], the EC50 is more than 100 nM. The figure for `Cc1cc2cc(c1F)[C@H](CC(=O)O)NC(=O)[C@@H](n1ccc(C(F)(F)F)c(Cl)c1=O)c1cc(ccc1F)Oc1cccc(C)c1-2` (single isomer, unassigned) [Example 76] is 39 nM.
